Source: ChEMBL document CHEMBL4004790, “ent-Strobane and ent-Pimarane Diterpenoids from Siegesbeckia pubescens” (J Nat Prod, 2017)

Assays:
RAW264.7 = assay: Antiinflammatory activity in mouse RAW264.7 cells assessed as inhibition of LPS-induced nitric oxide production after 24 hrs by Griess assay; format: functional, cell-based; settings: RAW264.7, 24 h
MDA-MB-231 = assay: Antiinvasive activity in human MDA-MB-231 cells assessed as inhibition of EGF-induced cell invasion after 3.5 hrs; format: functional, cell-based; settings: MDA-MB-231, 3.5 h

Q: Which IC50 (RAW264.7) does the source give for `CC1(C)[C@H](O)CC[C@@]2(C)[C@@H]3CC[C@](C)([C@@H](O)CO)C=C3C=C[C@H]12` here?
A: > 100 µM

Q: And the IC50 (MDA-MB-231)?
A: > 10 µM

Q: Which IC50 (RAW264.7) does the source give for `C[C@@]1(CO)C[C@H](O)C[C@@]2(C)[C@@H]3CC[C@](C)([C@@H](O)CO)C=C3CC[C@H]12` here?
A: > 100 µM

Q: What about the IC50 (MDA-MB-231) of the same compound?
A: > 10 µM

Q: How did the IC50 (RAW264.7) turn out when `C[C@]1(CO)C[C@@H](O)C[C@@]2(C)[C@@H]3CC[C@](C)([C@@H](O)CO)C=C3CC[C@H]12` was run?
A: > 100 µM

Q: And the IC50 (MDA-MB-231)?
A: > 10 µM

Q: How did the IC50 (RAW264.7) turn out when `CC1(C)[C@H]2CC=C3[C@@H](CC[C@@]4(C)[C@@H]3OC[C@@H]4O)[C@]2(C)CC[C@@H]1O` was run?
A: > 100 µM

Q: And the IC50 (MDA-MB-231)?
A: > 10 µM

Q: What does the source list for `C[C@@]1(CO)C[C@@H](O)C[C@@]2(C)[C@@H]3CC[C@](C)(O)[C@@H](CO)C=C3CC[C@H]12`?
A: IC50 (RAW264.7): > 100 µM; IC50 (MDA-MB-231): > 10 µM

Q: Which results are given for `C[C@@]1(CO)C[C@@H](O)C[C@@]2(C)[C@@H]3CC[C@](C)([C@@H](O)CO)C=C3[C@@H](O)C[C@H]12`?
A: IC50 (RAW264.7): > 100 µM; IC50 (MDA-MB-231): > 10 µM

Q: How did the IC50 (RAW264.7) turn out when `Cc1ccc2c(c1)C(=O)C[C@@H]1[C@](C)(CO)CC(=O)C[C@@]21C` was run?
A: > 100 µM

Q: And the IC50 (MDA-MB-231)?
A: 4.26 to 4.29 µM

Q: With `Cc1ccc2c(c1)CC[C@@H]1[C@](C)(CO)C[C@@H](O)C[C@@]21C` as the compound, how does the IC50 (RAW264.7) read?
A: > 100 µM

Q: And the IC50 (MDA-MB-231)?
A: > 10 µM

Q: Which results are given for `CC1(C)[C@H](O)C[C@H](O)[C@@]2(C)[C@@H]3CC[C@](C)([C@@H](O)CO)C=C3CC[C@H]12`?
A: IC50 (RAW264.7): > 100 µM; IC50 (MDA-MB-231): > 10 µM

Q: Which results are given for `CC1(C)[C@H](O)CC[C@@]2(C)[C@@H]3CC[C@@]4(C)[C@H](OC[C@@H]4O)C3=CC[C@H]12`?
A: IC50 (RAW264.7): > 100 µM; IC50 (MDA-MB-231): > 10 µM

Q: `C[C@]1(CO)[C@H]2CCC3=C[C@@](C)([C@@H](O)CO)CC[C@H]3[C@]2(C)C[C@H](O)[C@H]1O` was tested. Which IC50 (RAW264.7) did it give?
A: > 100 µM

Q: And the IC50 (MDA-MB-231)?
A: > 10 µM

Q: `C[C@@]1(CO)C[C@@H](O)C[C@@]2(C)[C@@H]3CC[C@](C)([C@H](O)CO)C=C3CC[C@H]12` was tested. Which IC50 (RAW264.7) did it give?
A: > 100 µM

Q: What about the IC50 (MDA-MB-231) of the same compound?
A: > 10 µM

Q: What does the source list for `CC1(C)[C@H](O)CC[C@@]2(C)[C@@H]3CC[C@](C)([C@H](O)CO)C=C3CC[C@H]12`?
A: IC50 (RAW264.7): > 100 µM; IC50 (MDA-MB-231): 3.45 µM

Q: With `C[C@@]1(CO)C[C@@H](O)C[C@@]2(C)[C@@H]3CC[C@](C)([C@@H](O)CO)C=C3[C@H](O)C[C@H]12` as the compound, how does the IC50 (RAW264.7) read?
A: > 100 µM

Q: And the IC50 (MDA-MB-231)?
A: 9.7 µM

Q: `C[C@@]1(CO)C[C@@H](O)C[C@@]2(C)[C@@H]3CC[C@](C)([C@@H](O)CO)C=C3C=C[C@H]12` was tested. Which IC50 (RAW264.7) did it give?
A: > 100 µM

Q: And the IC50 (MDA-MB-231)?
A: > 10 µM

Q: What does the source list for `CC1(C)[C@H](O)CC[C@@]2(C)[C@@H]3CC[C@](C)(O)[C@@H](CO)C=C3CC[C@H]12`?
A: IC50 (RAW264.7): > 100 µM; IC50 (MDA-MB-231): > 10 µM

Q: Which IC50 (RAW264.7) does the source give for `CC1(C)[C@H](O)CC[C@@]2(C)[C@@H]3CC[C@](C)([C@@H](O)CO)C=C3CC[C@H]12` [DARUTIGENOL] here?
A: > 100 µM

Q: What about the IC50 (MDA-MB-231) of the same compound?
A: > 10 µM

Q: `C[C@@]1(CO)C[C@@H](O)C[C@@]2(C)[C@@H]3CC[C@](C)([C@@H](O)CO)C=C3CC[C@H]12` [KIRENOL] was tested. Which IC50 (RAW264.7) did it give?
A: > 100 µM

Q: What about the IC50 (MDA-MB-231) of the same compound?
A: > 10 µM
